The results in this text go back to patent US4877876A, “Novel indenothiazole derivative and process for preparing the same” (Hisamitsu Pharmaceutical Co., Inc., priority 1986, dated 1989).

Counter-ions that a name gives are not always drawn.

For the experiment, the system named is Wistar-strained male rats. Kind of experiment: Pharmacological test: ulcer inhibition against ethanol-induced ulcer in rats. In kind it is in vivo. The following applies: test compounds 50 mg/kg orally, one hour before 1 ml pure ethanol orally; compared with 0.5% tragacanth control. The protocol:
Groups each consisting of 9 to 10 Wistar-strained male rats, each weighing about 200 g, were used in the test after their abstinence from food and water for 24 hours. Each test compound of this invention was administered in an amount of 50 mg/kg and a comparative medicine, "Neuer" (tradename: produced by Daiichi Pharmaceutical Co., Ltd.; effective component: centraxate) in an amount of 300 mg/kg. Each of the test compounds was administered orally to each rat of a first group and the comparative medicine to each rat of a second group one hour before oral administration of 1 ml of pure ethanol per rat. One hour later, each rat was sacrificed by exsanguination and its stomach was enucleated and fixed with 10 ml of 70% ethanol for about 30 minutes. A 0.5% tragacanth solution was administered to each rat of a third group. The ulcer was measured for length with naked eyes, and the test groups of rats were measured for their respective ulcer inhibition ratios in comparison with that for the third group.
Both the test compounds and the comparative medicine were each suspended or dissolved in a 0.5% tragacanth gum saline solution for use in the test. […] [formula]
On to `Fc1ccc2c(c1)Cc1sc(NCCCN3CCOCC3)nc1-2` [Example 1 (dihydrochloride), 2-(3-morpholinopropyl)amino-6-fluoro-8H-indeno[1.2-d]thiazole], for which the Ulcer inhibition ratio was 94.1%. With `Fc1ccc2c(c1)Cc1sc(NCCCN3CCOCC3)nc1-2` [Example 1 (maleic acid salt), 2-(3-morpholinopropyl)amino-6-fluoro-8H-indeno[1.2-d]thiazole], the Ulcer inhibition ratio amounted to 89.5%. Under `Fc1ccc2c(c1)Cc1sc(NCCCN3CCOCC3)nc1-2` [Example 1, 2-(3-morpholinopropyl)amino-6-fluoro-8H-indeno[1.2-d]thiazole] stands 89.0%; under `Fc1ccc2c(c1)CC1SC(=NCCCN3CCOCC3)N=C21` (stereo not drawn) [Example 2], 93.5%; under `CC(C)CNc1nc2c(s1)Cc1ccccc1-2` [Example 7], 79.0%.

For the compound `Clc1ccc2c(c1)-c1nc(NCCN3CCOCC3)sc1C2` [Example 59], the Ulcer inhibition ratio was 85.0%. In the case of `c1ccc2c(c1)Cc1sc(NCCCN3CCOCC3)nc1-2` [Example 61] it was 90.0%; in that of `CC1c2sc(NCCCN3CCOCC3)nc2-c2cccc(Cl)c21` (stereo not drawn) [Example 83 (dihydrochloride)], 85.9%. On to `c1ccc2c(c1)Cc1sc(NCCCCN3CCOCC3)nc1-2` [Example 92], for which the Ulcer inhibition ratio came to 83.4%.
